Like-named read-outs stand apart in the source and are kept apart here. Square brackets hold non-standard residues; d marks the D form. Peptide text beside a SMILES is read from it.
Assays:
[1] = biological target: T1, hJNK1 (Homo sapiens, UniProt P45983); assay: hJNK1 | IC50
T1 construct: His; purchased Upstate 14-327
Source text: (§1) Table printed on a drawing sheet, Fig. 4
Head of the field: hJNK1 | IC50
(§2) The patent's description of the figure: FIG. 4: Table illustrating the inhibitory efficacy of several JNK inhibitors according to the present invention, which are fusion proteins of a JNK inhibitory (poly-)peptide sequence and a transporter sequence. Given are the IC50 values in the nM range, the respective standard error of the mean (SEM) and the number of experiments performed (n).
(§3) First copying reader's note: The sheet prints no unit for IC50 (the description says nM range); decimal commas are used, except for three IC50 cells printed with a point (3820.81, 5340.33, 8130.86).
Where the first naming reader finds the target: head: hJNK1 | IC50

[2] = biological target: hJNK2 (Homo sapiens, UniProt P45984); assay: hJNK2 | IC50
Source text: as §1
Head of the field: hJNK2 | IC50
as §2, §3
Where the first naming reader finds the target: head: hJNK2 | IC50

[3] = biological target: hJNK3 (Homo sapiens, UniProt P53779); assay: hJNK3 | IC50
Source text: as §1
Head of the field: hJNK3 | IC50
as §2, §3
Where the first naming reader finds the target: head: hJNK3 | IC50

T1 sequence (P45983 whole entry, looked up): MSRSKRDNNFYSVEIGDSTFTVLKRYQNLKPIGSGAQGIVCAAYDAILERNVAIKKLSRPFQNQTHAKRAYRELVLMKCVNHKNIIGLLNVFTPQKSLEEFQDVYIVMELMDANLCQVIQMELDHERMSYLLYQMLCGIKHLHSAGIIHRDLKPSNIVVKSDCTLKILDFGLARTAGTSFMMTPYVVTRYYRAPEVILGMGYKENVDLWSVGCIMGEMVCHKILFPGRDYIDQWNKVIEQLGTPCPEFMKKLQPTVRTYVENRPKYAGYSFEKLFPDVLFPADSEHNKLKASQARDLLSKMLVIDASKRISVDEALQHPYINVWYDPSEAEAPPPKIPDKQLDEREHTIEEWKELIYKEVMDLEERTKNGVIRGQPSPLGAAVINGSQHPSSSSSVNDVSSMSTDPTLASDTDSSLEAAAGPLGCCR
Sequence of hJNK3 (P53779 whole entry, looked up): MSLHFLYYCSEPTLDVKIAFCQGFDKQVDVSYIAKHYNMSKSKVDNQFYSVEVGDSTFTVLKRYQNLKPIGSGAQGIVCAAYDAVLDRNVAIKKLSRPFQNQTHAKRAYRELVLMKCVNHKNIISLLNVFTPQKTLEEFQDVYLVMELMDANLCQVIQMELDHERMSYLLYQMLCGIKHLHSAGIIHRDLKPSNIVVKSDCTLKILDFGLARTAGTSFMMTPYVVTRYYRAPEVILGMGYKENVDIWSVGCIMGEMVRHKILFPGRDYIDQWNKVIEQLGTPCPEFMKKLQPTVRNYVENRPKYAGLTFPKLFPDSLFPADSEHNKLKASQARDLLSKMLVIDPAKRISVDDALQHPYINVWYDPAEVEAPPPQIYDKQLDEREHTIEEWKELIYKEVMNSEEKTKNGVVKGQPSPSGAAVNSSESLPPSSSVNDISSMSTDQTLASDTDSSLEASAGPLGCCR
Sequence of hJNK2 (P45984 whole entry, looked up): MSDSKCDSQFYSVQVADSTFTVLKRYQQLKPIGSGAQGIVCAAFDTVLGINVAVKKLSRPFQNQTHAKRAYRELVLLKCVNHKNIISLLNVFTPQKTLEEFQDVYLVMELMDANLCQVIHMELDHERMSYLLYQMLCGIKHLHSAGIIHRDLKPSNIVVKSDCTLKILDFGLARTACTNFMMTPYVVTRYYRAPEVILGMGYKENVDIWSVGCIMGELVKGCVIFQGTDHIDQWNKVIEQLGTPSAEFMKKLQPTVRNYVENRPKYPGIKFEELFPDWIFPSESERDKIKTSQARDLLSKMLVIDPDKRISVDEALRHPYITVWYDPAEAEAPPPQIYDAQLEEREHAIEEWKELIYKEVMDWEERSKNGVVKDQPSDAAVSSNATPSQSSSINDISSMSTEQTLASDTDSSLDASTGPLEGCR

Structure (SMILES)	IC50 ([1]; read-out: hJNK1 | IC50)	IC50 ([2]; read-out: hJNK2 | IC50)	IC50 ([3]; read-out: hJNK3 | IC50)	IC50 [1]	IC50 [2]	IC50 [3]
CC(C)C[C@H](NC(=O)[C@@H](NC(=O)[C@@H](NC(=O)[C@@H]1CCCN1C(=O)[C@H](CCCNC(=N)N)NC(=O)[C@@H](CCCNC(=N)N)NC(=O)[C@H](CCCNC(=N)N)NC(=O)[C@H](CCC(N)=O)NC(=O)[C@@H](CCCNC(=N)N)NC(=O)[C@H](CCCNC(=N)N)NC(=O)[C@H](CCCCN)NC(=O)[C@H](CCCCN)NC(=O)[C@H](N)CCCNC(=N)N)[C@@H](C)O)[C@@H](C)O)C(=O)N[C@H](CCCNC(=N)N)C(=O)N[C@@H](CC(C)C)C(=O)N[C@H](Cc1c[nH]c2ccccc12)C(N)=O [SEQ ID NO: 179, rKKRrQRrRPTTLrLw] (H-[dR]KKR[dR]QR[dR]RPTTL[dR]L[dW]-NH2)	249 nM	122 nM	45.7 nM			
CC(C)C[C@H](NC(=O)[C@H](CC(=O)O)NC(=O)[C@@H](NC(=O)[C@@H]1CCCN1C(=O)[C@H](CCCNC(=N)N)NC(=O)[C@@H](CCCNC(=N)N)NC(=O)[C@H](CCCNC(=N)N)NC(=O)[C@H](CCC(N)=O)NC(=O)[C@@H](CCCNC(=N)N)NC(=O)[C@H](CCCNC(=N)N)NC(=O)[C@H](CCCCN)NC(=O)[C@H](CCCCN)NC(=O)[C@H](N)CCCNC(=N)N)[C@@H](C)O)C(=O)N[C@H](CCCNC(=N)N)C(=O)N[C@@H](CC(C)C)C(=O)N[C@H](Cc1c[nH]c2ccccc12)C(N)=O [SEQ ID NO: 181, rKKRrQRrRPTDLrLw] (H-[dR]KKR[dR]QR[dR]RPTDL[dR]L[dW]-NH2)	294 nM	160 nM	47.6 nM			
CC(C)C[C@H](NC(=O)[C@H](CC(N)=O)NC(=O)[C@H](CC(C)C)NC(=O)[C@@H](NC(=O)[C@@H](C)NC(=O)[C@@H]1CCCN1C(=O)[C@H](CCCNC(=N)N)NC(=O)[C@@H](CCCNC(=N)N)NC(=O)[C@H](CCCNC(=N)N)NC(=O)[C@H](CCC(N)=O)NC(=O)[C@@H](CCCNC(=N)N)NC(=O)[C@H](CCCNC(=N)N)NC(=O)[C@H](CCCCN)NC(=O)[C@H](CCCCN)NC(=O)[C@H](N)CCCNC(=N)N)[C@@H](C)O)C(=O)N[C@H](Cc1ccccc1)C(N)=O [SEQ ID NO: 183, rKKRrQRrRPaTLNLf] (H-[dR]KKR[dR]QR[dR]RP[dA]TLNL[dF]-NH2)	2590 nM	427 nM	199 nM			
CC(C)C[C@H](NC(=O)[C@H](CC(N)=O)NC(=O)[C@H](CC(C)C)NC(=O)[C@@H](NC(=O)[C@@H](NC(=O)[C@@H]1CCCN1C(=O)[C@H](CCCNC(=N)N)NC(=O)[C@H](CCCCN)NC(=O)[C@@H]1CCCN1C(=O)[C@H](CCCNC(=N)N)NC(=O)[C@@H]1CCCN1C(=O)[C@@H]1CCCN1C(=O)[C@H](CCCNC(=N)N)NC(=O)[C@H](CCCNC(=N)N)NC(=O)[C@H](CCCNC(=N)N)NC(=O)[C@H](CCC(N)=O)NC(=O)[C@H](CCCNC(=N)N)NC(=O)[C@H](CCCNC(=N)N)NC(=O)[C@H](CCCCN)NC(=O)[C@H](CCCCN)NC(=O)[C@H](CCCNC(=N)N)NC(=O)CN)[C@@H](C)O)[C@@H](C)O)C(=O)N[C@@H](Cc1ccccc1)C(=O)N1CCC[C@H]1C(=O)N[C@@H](CCC(N)=O)C(=O)N[C@H](C(=O)N1CCC[C@H]1C(=O)N[C@@H](CCCNC(=N)N)C(=O)N[C@@H](CO)C(=O)N[C@@H](CCC(N)=O)C(=O)N[C@@H](CC(=O)O)C(N)=O)C(C)C [SEQ ID NO: 196] (H-GRKKRRQRRRPPRPKRPTTLNLFPQVPRSQD-NH2)				42.2 nM	8.43 nM	5.22 nM
CC(C)C[C@H](NC(=O)[C@H](CC(N)=O)NC(=O)[C@H](CC(C)C)NC(=O)[C@@H](NC(=O)[C@@H](NC(=O)[C@@H]1CCCN1C(=O)[C@H](CCCNC(=N)N)NC(=O)[C@H](CCCNC(=N)N)NC(=O)[C@H](CCCNC(=N)N)NC(=O)[C@H](CCC(N)=O)NC(=O)[C@H](CCCNC(=N)N)NC(=O)[C@H](CCCNC(=N)N)NC(=O)[C@H](CCCCN)NC(=O)[C@H](CCCCN)NC(=O)[C@H](CCCNC(=N)N)NC(=O)CN)[C@@H](C)O)[C@@H](C)O)C(=O)N[C@@H](Cc1ccccc1)C(=O)N1CCC[C@H]1C(=O)N[C@@H](CCC(N)=O)C(=O)N[C@H](C(=O)N1CCC[C@H]1C(=O)N[C@@H](CCCNC(=N)N)C(=O)N[C@@H](CO)C(=O)N[C@@H](CCC(N)=O)C(=O)N[C@@H](CC(=O)O)C(N)=O)C(C)C [SEQ ID NO: 195] (H-GRKKRRQRRRPTTLNLFPQVPRSQD-NH2)				10.8 nM	11.3 nM	4.92 nM

Continued, in another order:

IC50 ([1]; read-out: hJNK1 | IC50)	IC50 ([2]; read-out: hJNK2 | IC50)	IC50 ([3]; read-out: hJNK3 | IC50)	Structure (SMILES)	IC50 [1]	IC50 [2]	IC50 [3]
1020 nM	52.6 nM	44.2 nM	CC(C)C[C@H](NC(=O)[C@H](CC(N)=O)NC(=O)[C@H](CC(C)C)NC(=O)[C@@H](NC(=O)[C@@H](CCC(N)=O)NC(=O)[C@@H]1CCCN1C(=O)[C@H](CCCNC(=N)N)NC(=O)[C@@H](CCCCN)NC(=O)[C@@H]1CCCN1C(=O)[C@H](CCCNC(=N)N)NC(=O)[C@@H](CCCNC(=N)N)NC(=O)[C@H](CCCNC(=N)N)NC(=O)[C@H](CCCNC(=N)N)NC(=O)[C@H](CCC(N)=O)NC(=O)[C@@H](CCCNC(=N)N)NC(=O)[C@H](CCCNC(=N)N)NC(=O)[C@H](CCCCN)NC(=O)[C@H](CCCCN)NC(=O)[C@H](N)CCCNC(=N)N)[C@@H](C)O)C(=O)N[C@H](Cc1ccccc1)C(N)=O [SEQ ID NO: 186, rKKRrQRRrRPkRPqTLNLf] (H-[dR]KKR[dR]QRR[dR]RP[dK]RP[dQ]TLNL[dF]-NH2)			
355 nM	87.2 nM	45.4 nM	CC(C)C[C@H](NC(=O)[C@H](CC(=O)O)NC(=O)[C@@H](NC(=O)[C@@H]1CCCN1C(=O)[C@H](CCCNC(=N)N)NC(=O)[C@@H](CCCCN)NC(=O)[C@@H]1CCCN1C(=O)[C@H](CCCNC(=N)N)NC(=O)[C@@H](CCCNC(=N)N)NC(=O)[C@H](CCCNC(=N)N)NC(=O)[C@H](CCCNC(=N)N)NC(=O)[C@H](CCC(N)=O)NC(=O)[C@@H](CCCNC(=N)N)NC(=O)[C@H](CCCNC(=N)N)NC(=O)[C@H](CCCCN)NC(=O)[C@H](CCCCN)NC(=O)[C@H](N)CCCNC(=N)N)[C@@H](C)O)C(=O)N[C@@H](CC(N)=O)C(=O)N[C@@H](CC(C)C)C(=O)N[C@H](Cc1ccccc1)C(N)=O [SEQ ID NO: 177, rKKRrQRRrRPkRPTDLNLf] (H-[dR]KKR[dR]QRR[dR]RP[dK]RPTDLNL[dF]-NH2)			
334 nM	120 nM	63.1 nM	CC(C)C[C@H](NC(=O)[C@H](CC(N)=O)NC(=O)[C@H](CC(C)C)NC(=O)[C@@H](NC(=O)[C@@H](NC(=O)[C@@H]1CCCN1C(=O)[C@H](CCCNC(=N)N)NC(=O)[C@@H](CCCNC(=N)N)NC(=O)[C@H](CCCNC(=N)N)NC(=O)[C@H](CCCNC(=N)N)NC(=O)[C@H](CCC(N)=O)NC(=O)[C@@H](CCCNC(=N)N)NC(=O)[C@H](CCCNC(=N)N)NC(=O)[C@H](CCCCN)NC(=O)[C@H](CCCCN)NC(=O)[C@H](N)CCCNC(=N)N)[C@@H](C)O)[C@@H](C)O)C(=O)N[C@H](Cc1ccccc1)C(N)=O [SEQ ID NO: 174, rKKRrQRRrRPTTLNLf] (H-[dR]KKR[dR]QRR[dR]RPTTLNL[dF]-NH2)			
594 nM	37.9 nM	25.4 nM	CC(C)C[C@H](NC(=O)[C@H](CC(N)=O)NC(=O)[C@H](CC(C)C)NC(=O)[C@@H](NC(=O)[C@@H](CCCCN)NC(=O)[C@@H]1CCCN1C(=O)[C@H](CCCNC(=N)N)NC(=O)[C@@H](CCCCN)NC(=O)[C@@H]1CCCN1C(=O)[C@H](CCCNC(=N)N)NC(=O)[C@@H](CCCNC(=N)N)NC(=O)[C@H](CCCNC(=N)N)NC(=O)[C@H](CCCNC(=N)N)NC(=O)[C@H](CCC(N)=O)NC(=O)[C@@H](CCCNC(=N)N)NC(=O)[C@H](CCCNC(=N)N)NC(=O)[C@H](CCCCN)NC(=O)[C@H](CCCCN)NC(=O)[C@H](N)CCCNC(=N)N)[C@@H](C)O)C(=O)N[C@H](Cc1ccccc1)C(N)=O [SEQ ID NO: 187, rKKRrQRRrRPkRPkTLNLf] (H-[dR]KKR[dR]QRR[dR]RP[dK]RP[dK]TLNL[dF]-NH2)			
265 nM	118 nM	47 nM	CC(C)C[C@H](NC(=O)[C@H](CC(=O)O)NC(=O)[C@@H](NC(=O)[C@@H]1CCCN1C(=O)[C@H](CCCNC(=N)N)NC(=O)[C@@H](CCCNC(=N)N)NC(=O)[C@H](CCCNC(=N)N)NC(=O)[C@H](CCCNC(=N)N)NC(=O)[C@H](CCC(N)=O)NC(=O)[C@@H](CCCNC(=N)N)NC(=O)[C@H](CCCNC(=N)N)NC(=O)[C@H](CCCCN)NC(=O)[C@H](CCCCN)NC(=O)[C@H](N)CCCNC(=N)N)[C@@H](C)O)C(=O)N[C@H](CCCNC(=N)N)C(=O)N[C@@H](CC(C)C)C(=O)N[C@H](Cc1c[nH]c2ccccc12)C(N)=O [SEQ ID NO: 180, rKKRrQRRrRPTDLrLw] (H-[dR]KKR[dR]QRR[dR]RPTDL[dR]L[dW]-NH2)			
88.4 nM	30 nM	16.8 nM	CC(C)C[C@H](NC(=O)[C@@H](NC(=O)[C@@H](NC(=O)[C@@H]1CCCN1C(=O)[C@H](CCCNC(=N)N)NC(=O)[C@@H](CCCCN)NC(=O)[C@@H]1CCCN1C(=O)[C@H](CCCNC(=N)N)NC(=O)[C@@H](CCCNC(=N)N)NC(=O)[C@H](CCCNC(=N)N)NC(=O)[C@H](CCCNC(=N)N)NC(=O)[C@H](CCC(N)=O)NC(=O)[C@@H](CCCNC(=N)N)NC(=O)[C@H](CCCNC(=N)N)NC(=O)[C@H](CCCCN)NC(=O)[C@H](CCCCN)NC(=O)[C@H](N)CCCNC(=N)N)[C@@H](C)O)[C@@H](C)O)C(=O)N[C@H](CCCNC(=N)N)C(=O)N[C@@H](CC(C)C)C(=O)N[C@H](Cc1ccccc1)C(N)=O [SEQ ID NO: 173, rKKRrQRRrRPkRPTTLrLf] (H-[dR]KKR[dR]QRR[dR]RP[dK]RPTTL[dR]L[dF]-NH2)			
